Results from patent US8771754B2, “Use of GSK3 inhibitors in combination with radiation therapies” (priority 2004, dated 2014).

System: HT-22 hippocampal neuronal cells
Assay: Apoptosis assay, Annexin V-FITC and propidium iodide flow cytometry
Type: cell-based, mouse
Conditions: for radiation-induced apoptosis, cells positive for apoptosis: HT-22, pretreated (LiCl 3 mM 7 days; inhibitor VIII 1 μM or SB415286 25 μM 24 h), 3 Gy, 24 h after irradiation, 3 Gy alone 53%, untreated 8%
Experimental: Apoptosis assays. HT-22 cells were treated with LiCl (3 mM) for 7 days, with GSK3β inhibitor VIII (1 μM) or SB415286 (25 μM) for 24 hours prior to irradiation. Camptothecin (5 μM) was added to the HT-22 cells 6 hours prior to harvest as a positive control for apoptosis. The HT-22 cells with or without the inhibitors were irradiated with 3 Gy and harvested 24 hours post irradiation. Annexin V-FITC (5 ng) and propidium iodide (50 ng) were added to […]. Stained cells were analyzed by flow cytometry. The fraction of cells in each of the four gating windows (Q1-4) was calculated.
Apoptosis was studied in irradiated mouse HT-22 hippocampal neuronal cells pretreated with LiCl, GSK3β inhibitor VIII or SB415286. The fraction of cells in each of the four gating windows (Q1-4) was calculated and tabulated as the mean and SEM of 3 separate experiments. Camptothecin served as positive control for apoptosis and was added to HT-22 cells prior to staining for apoptosis. Camptothecin positive control induced apoptosis in 78.8% of cells. In comparison, 3 Gy irradiation induced apoptosis in 53% of cells, while 8% of untreated control cells stained positive for apoptosis (FIG. 2B). […] Lithium, as a nonspecific neuroprotector, attenuated radiation-induced apoptosis to 21.9% of cells (P=0.01, 3 Gy vs. 3 Gy+LiCl). The radioprotective effect of lithium in HT-22 neuronal cells was also analyzed by morphologic analysis using DAPI staining.

CC[C@@]1(O)C(=O)OCc2c1cc1n(c2=O)Cc2cc3ccccc3nc2-1 [Camptothecin]
apoptosis induced by positive control (HT-22, camptothecin 5 μM added 6 hours prior to harvest): 78.8%

COc1ccc(CNC(=O)Nc2ncc([N+](=O)[O-])s2)cc1 [GSK3β inhibitor VIII]
radiation-induced apoptosis, cells positive for apoptosis: 33.9%

O=C1NC(=O)C(c2ccccc2[N+](=O)[O-])=C1Nc1ccc(O)c(Cl)c1 [SB415286]
radiation-induced apoptosis, cells positive for apoptosis: 41.4%
